Source: publication PMC11881343, “Safety of ilunocitinib tablets (Zenrelia™) after once daily oral administration in dogs” (BMC Veterinary Research, 2025)

Assays:
[1] = system: leukocyte subsets (T, Th, Tc, B lymphocytes, monocytes); assay: Peripheral blood immunophenotyping by flow cytometry; assay type: in vivo, dog; conditions: either sex at any dose level
Description: Whole blood samples were also collected from the jugular vein for the evaluation of the leukocyte subsets and phenotypes on study days − 16 and − 8, and on study days 29, 57, 85, 113, 141, 169 and 183. The immunophenotype profiling by flow cytometry included total T lymphocytes (CD45 + CD5 + or CD5 + T cells), Helper T lymphocytes (CD45 + CD5 + CD4 + or CD4 + Th cells), Cytotoxic T lymphocytes (CD45 + CD5 + CD8 + or CD8 + Tc cells), B lymphocytes (CD45 + CD5- CD21 + or CD21 + B cells) and monocytes (CD45 + CD14+).
For immunophenotyping/peripheral blood leukocytes, a generalized linear mixed model for repeated measures analysis of variance (mixed model) was conducted. For each endpoint, the model tested for the effects of treatment, time, sex and all two and three-way interactions. The last available pre-treatment value was included in the model as a covariate. The evaluation proceeded as described for RMANCOVA.

dogs = conditions: field conditions; cited from earlier work
[2] = tablets, dogs; no reference given; cited from earlier work
healthy Beagle dogs = assay: 6-month safety study: organ weights, gross and microscopic examinations; conditions: 5X group
Description: At study termination (study day 183), the dogs were humanely euthanized by an intravenous injection of pentobarbital sodium/phenytoin solution under sedation with 6.6–13.2 mg/kg Telazol® (tiletamine/zolazepam) subcutaneous injection. Gross and microscopic examinations were carried out on all animals by a board-certified veterinary pathologist.

N#CCC1(n2cc(-c3ncnc4[nH]ccc34)cn2)CN(S(=O)(=O)C2CC2)C1 [ilunocitinib]
effects on leukocyte analysis (immunophenotyping) parameters [1]: no test article-related effects | Weight gain in dogs under field conditions (dogs): in very few cases | increase in oral bioavailability when given with food or after feeding [2]: ~20% | Prostate weight, prostate weight as a percent of body weight and ratio of prostate weight to brain weight vs controls (healthy Beagle dogs): significantly decreased
